In ChEMBL document CHEMBL2074124, “A transfected cell model for the renal toxin transporter, rOCT2” (Toxicol Sci, 1999) one finds Activity, Ki and Km data, which are given here for 5 molecules.

In data set [1] the target is T1, Solute carrier family 22 member 2 (Rattus norvegicus, UniProt Q9R0W2).
T1 sequence (Q9R0W2 whole entry): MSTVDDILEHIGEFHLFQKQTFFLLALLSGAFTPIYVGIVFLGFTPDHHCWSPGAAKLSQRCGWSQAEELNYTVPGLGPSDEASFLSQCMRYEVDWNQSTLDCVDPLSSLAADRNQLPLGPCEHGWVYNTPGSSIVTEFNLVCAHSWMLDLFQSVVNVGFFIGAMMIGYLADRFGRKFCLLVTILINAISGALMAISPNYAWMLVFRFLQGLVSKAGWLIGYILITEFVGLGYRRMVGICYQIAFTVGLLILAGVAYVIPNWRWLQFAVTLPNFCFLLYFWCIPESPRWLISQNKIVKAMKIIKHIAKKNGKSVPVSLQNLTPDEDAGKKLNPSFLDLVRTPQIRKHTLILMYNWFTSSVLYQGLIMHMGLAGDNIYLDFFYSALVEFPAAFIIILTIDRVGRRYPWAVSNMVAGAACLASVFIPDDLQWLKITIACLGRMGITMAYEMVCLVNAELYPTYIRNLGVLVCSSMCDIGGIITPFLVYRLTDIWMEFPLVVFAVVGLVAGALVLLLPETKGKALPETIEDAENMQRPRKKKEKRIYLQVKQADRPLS
Kind of data set: TP_TRANSPORTER: uptake (apical to cell) in OCT2-expressing NIH3T3 cells. The format is functional, cell-based. As to conditions: mouse.

The target in data set [2] is T1, Solute carrier family 22 member 2. Briefly: TP_TRANSPORTER: inhibition of TEA uptake (apical to cell) in OCT2-expressing NIH3T3 cells. The format is functional, cell-based.
Substrate in data set [3]: CC[N+](CC)(CC)CC
Briefly: cells, lysate or membranes named.

For `COc1cccc2c1C(=O)c1c(O)c3c(c(O)c1C2=O)C[C@@](O)(C(C)=O)C[C@@H]3O[C@H]1C[C@H](N)[C@H](O)[C@H](C)O1` [DAUNORUBICIN], the Activity result in data set [1] is “substrate [+]”. The same measure, in the same setting: then `CC[C@]1(O)C[C@@H]2CN(CCc3c([nH]c4ccccc34)[C@@](C(=O)OC)(c3cc4c(cc3OC)N(C)[C@H]3[C@@](O)(C(=O)OC)[C@H](OC(C)=O)[C@]5(CC)C=CCN6CC[C@]43[C@@H]65)C2)C1` [VINBLASTINE], with “substrate [+]”. One may read the Ki as a dissociation constant, usually derived from enzyme kinetics or from competition with a known ligand. A higher Ki goes with weaker binding. `CN/C(=N/CCSCc1nc[nH]c1C)NC#N` [CIMETIDINE] registered an inhibition constant Ki in data set [2] of 198 µM. In data set [2], `CC[n+]1c(CC2C=C(C)N=C(c3ccccc3)N2C)ccc2ccccc21` (stereo not given) [Cyanine-863] gave a Ki of 0.861 µM.

B1: Solute carrier family 22 member 2 (Rattus norvegicus) (protein)
chain: T1 sequence (Q9R0W2 whole entry)
A word on the Km: it is the substrate concentration at which the rate is half of its maximum. In the case of B1, the Km in data set [3] was found to be 141 µM.
